This is an account of results in ChEMBL document CHEMBL2390946, “Discovery of TAK-960: an orally available small molecule inhibitor of polo-like kinase 1 (PLK1)” (Bioorg Med Chem Lett, 2013).

Holding throughout (assay type): ADME, organism-based
A short description of series [1]: Oral bioavailability in rat at 5 mg/kg. The conditions noted are these: in vivo.
The nature of series [2]: Clearance in rat at 1 mg/kg, iv and 5 mg/kg, po. The conditions noted are these: in vivo.
Series [3] can be described thus: Half life in rat at 1 mg/kg, iv and 5 mg/kg, po. Particulars: in vivo.
A short description of series [4]: Volume of distribution at steady state in rat at 1 mg/kg, iv and 5 mg/kg, po. The conditions noted are these: in vivo, read-out: Vdss.

With `COc1cc(C(=O)NC2CCN(C)CC2)ccc1Nc1ncc2c(n1)N(C1CCCC1)CC(F)(F)C(=O)N2C`, the bioavailability – broadly, dose-corrected exposure relative to a reference, in per cent – in series [1] was 11%. In series [2], this compound came in with a clearance of 51 mL/min/kg. Moreover, the half-life (usually how long it takes for the measured level to halve) in series [3] was 3.3 h. The Vd in series [4] came to 19.6 L/kg.

As for `COc1cc(C(=O)NC2CCN(C)CC2)c(F)cc1Nc1ncc2c(n1)N(C1CCCC1)CC(F)(F)C(=O)N2C` [TAK-960], the bioavailability in series [1] is 54%. For the same compound, the clearance in series [2] was found to be 42 mL/min/kg. Also, in series [3], the half-life is 5.4 h. Also, the Vd in series [4] was determined as 13.7 L/kg.
